Data from patent US8906864B2, “Binding domains of proteins of the repulsive guidance molecule (RGM) protein family and functional fragments thereof, and their use” (AbbVie Deutschland GmbH & Co. KG, priority 2005, dated 2014).
“Also recorded” adds a separate entry of the source. Where no end group is shown, it is not given here.

Key:
Assay type in all cases: cell-based
human Ntera nerve cells = assay: NTera nerve fiber growth assay (assay method 2); conditions: for activity of RGM A peptides in NTera growth assay: FIG. 6A and 6B; for activity in NTera nerve fiber growth assay: peptide concentration 10 μg/ml (FIG. 6B); for inhibition of nerve fiber growth of human NTera cells: peptide concentration 30 μg/ml (higher concentration)
Procedure: The human pluripotent carcinoma cell line Ntera (DSMZ ACC527) is an established cell culture model. In this case, axons grow out of cell aggregates and form a corona of axons around the respective aggregate.
For this purpose, 2.5×10^6 Ntera cells were seeded in a 175 cm^2 bottle and differentiated in 10 μM retinoic acid (Sigma) (medium: D-MEM (Gibco/Invitrogen 31966-021), 10% fetal calf serum, 100 u/ml penicillin, 100 μg/ml streptomycin (both Gibco/Invitrogen)) for 3 weeks. Differentiated cells were then divided 1:6 in new bottles and cultured without retinoic acid for a further 2 days. Neuronal cells adhering to the resulting cell lawn were detached by capping and aggregated by slow shaking in Neurobasal medium (Neurobasal Medium (Gibco/Invitrogen 21103-049), 2 mM L-glutamine (Gibco/Invitrogen 25030-024), 100 u/ml penicillin, 100 μg/ml streptomycin (both Gibco/Invitrogen) in a shaken flask overnight (in an incubator).
The next day, Ntera aggregates were seeded in poly-D-lysine and laminin (Sigma) (10 μg/ml) 96-well plates (Biocoat Poly-D-Lysine Cellware 96-Well Black/Clear Plate (Becton Dickinson #35 6640). The inhibitory effect of RGM peptides and fragments was analyzed by adding various concentrations of the substances to be tested.

[1] = system: Neogenin-expressing HEK293 cells; assay: Fragment analysis with neogenin-expressing HEK293 cells (semiquantitative dot-blot of producing clones); conditions: stably transfected HEK293 clones
Source text: It was previously known that the active, growth-inhibiting activity of the RGM A protein from chickens is located in the region between amino acid position 150 and 350.
Fragments of the human RGM A protein which cover this range were therefore prepared. HEK293 cells which carry the RGM receptor endogenously on their surface were then transfected with these fragments in order to prepare clonal cell cultures which produce the individual protein fragments and release them into the culture medium. All the fragments were produced as fusion proteins with attached alkaline phosphatase enzyme. The presence of the active domain in these cells should make itself noticeable by: less cellular proliferation, increased cell death and/or altered cell-substrate adhesion.
Increased cell death and less proliferation have, of course, a direct effect on the produced amount of the active fragment. The amount of the produced fragments was assessed with the aid of a semiquantitative dot-blot assay.
The RGM A fragments prepared as in preparation example 1 were introduced into HEK293 cells. […]
In addition, the ratio of strongly to non-producing clones was determined.

rat cortical neurons = assay: Neuronal outgrowth test with rat cortical neurons (assay method 1)
Procedure: The effect of RGM peptides in vitro was investigated by carrying out neuronal outgrowth tests. For this purpose, rat cortical neurons were prepared using the following media:
Cortical neurons were obtained by sacrificing pregnant rats by cervical dislocation, opening the abdominal cavity thereof, removing the uterus with the embryos (embryonic day 18 (E18)) and washing in PBS. Microdissection scissors were used to cut open the uterus longitudinally, and the embryos were removed and exposed. The embryos were sacrificed by throat-cutting, the brain was removed and the forebrain cortex was dissected. […] The cells were counted in a Neubauer counting chamber, and the number of cells was adjusted to about 400 000 cells/0.2 ml in MM and preaggregated. […] 24-48 h later, the axonal outgrowths were initially assessed by examination under a light microscope, and the cultures were then fixed by adding 100 μl of 4% paraformaldehyde solution and stored at 4° C. for at least 12 hours. […] The fluorescence-labeled secondary antibody (Jackson ImmunoResearch, Cy3 conjugated Affinity Pure Donkey Anti Mouse #715-165-151) was diluted 1:500 in 1% bovine serum albumin solution in PBS, which additionally comprised 0.5 μg/ml bisbenzimide (H33258) to visualize the cell nuclei, and 50 μl of this dilution were incubated per well at room temperature for 1-2 h or at 4° C. overnight. […]

| Substance | activity of RGM A peptides in NTera growth assay (human Ntera nerve cells; overall result) | activity in NTera nerve fiber growth assay (human Ntera nerve cells) | inhibition of nerve fiber growth of human NTera cells (human Ntera nerve cells) | also measured |
| --- | --- | --- | --- | --- |
| Peptide 7-Ak: RGM A peptide 217-234, TIIFKNFQECVDQKVYQA (SEQ ID NO: 29) | Inactive or only weakly active | inactive | distinct trend in the direction of inhibition of nerve fiber growth; also recorded: tendency to inhibit growth |  |
| Peptide Down-1: RGM A peptide 260-275, KITEKVSGQHVEIQAK (SEQ ID NO: 26) | large reduction in nerve fiber growth |  | inhibited nerve fiber growth highly significantly |  |
| Fragment 5: human RGM A fragment amino acids 369-422, expressed in HEK293 as AP fusion protein (PVEDLYYQACVFDLLTTGDVNFTLAAYYALEDVKMLHSNKDKLHLYERTRDLPG; also: alkaline phosphatase fusion; UniProt Q96B86 369-422, looked up, fragment) |  |  |  | Proportion of strongly producing cell clones [1]: 16%; Ratio "S producer" versus "0 producer" ([1]; low value = active fragment): 0.63; activity (inhibitory for axon growth) of RGM A fragments in NTera outgrowth assay (human Ntera nerve cells; stated concentrations (FIG. 5B), overall result): inactive |
| Peptide 4: synthetic RGM A peptide AA 378-400 of SEQ ID NO: 2 (CVFDLLTTGDVNFTLAAYYALED; listed as Homo sapiens) |  |  | not | activity on nerve fiber growth of cortical neurons (axon growth index) (rat cortical neurons; concentrations 0 to 30 μg/ml (FIG. 3C)): no activity; influence on nerve fiber growth of rat neuronal cells (rat cortical neurons; peptide concentration 10 μg/ml, fluorescence micrographs (FIG. 3A)): inactive |
| Peptide Up-1: RGM A peptide 276-291, YIGTTIVVRQVGRYLT (SEQ ID NO: 27) | large reduction in nerve fiber growth |  | inhibited nerve fiber growth highly significantly |  |
| Peptide 5-Ak: RGM A peptide 242-259, AFVDGSKNGGDKHGANSL (SEQ ID NO: 30) | Inactive or only weakly active | inactive |  |  |
| Peptide 6-Ak: RGM A peptide 300-316, VVNAVEDWDSQGLYLC (SEQ ID NO: 28) | Inactive or only weakly active | inactive | distinct trend in the direction of inhibition of nerve fiber growth; also recorded: tendency to inhibit growth |  |
